In patent US9993000B2, “Isosorbide ether derivatives with preservation activity” (BASF SE, priority 2015, dated 2018):

Experiments:
Assay in all cases: Minimum Inhibitory Concentration (MIC) according to DIN 58 940
Assay type in all cases: cell-based
Staphylococcus aureus = tested on: Staphylococcus aureus
From the text: (§1) MIC: Determination of Minimum Inhibitory Concentration (MIC) according to DIN 58 940

Malassezia furfur = conditions: Malasse zia furfur
From the text: as §1

Candida albicans = tested on: Candida albicans
From the text: as §1

Brevibacterium epidermis = tested on: Brevibacterium epidermis
From the text: as §1

Escherichia coli = tested on: Escherichia coli
From the text: as §1

Propionibacterium acnes = tested on: Propionibacterium acnes
From the text: as §1

Staphylococcus epidermis = tested on: Staphylococcus epidermis
From the text: as §1

Aspergillus brasiliensis = conditions: Asperigillus brasiliensis
From the text: as §1

Pseudomonas aeruginosa = tested on: Pseudomonas aeruginosa
From the text: as §1

Row | SMILES | MIC (Staphylococcus aureus) | MIC (Malassezia furfur) | MIC (Candida albicans) | MIC (Brevibacterium epidermis) | MIC (Escherichia coli) | MIC (Propionibacterium acnes) | MIC (Staphylococcus epidermis) | MIC (Aspergillus brasiliensis) | MIC (Pseudomonas aeruginosa)
1 | CCCCCCCCOC1COC2C(OCCCCCCCC)COC12 (stereo not drawn) [Comperative compound (1), reference compound] | >10,000 ppm | >10,000 ppm | >10,000 ppm | >10,000 ppm | >10,000 ppm | >10,000 ppm | <200 ppm | >10,000 ppm | >10,000 ppm
2 | CCCCCCCCOC1COC2C(O)COC12 (stereo not drawn) [Compound (1)] | <500 ppm | <1,000 ppm | <50 ppm | <500 ppm | <1,000 ppm | <500 ppm | <100 ppm | <200 ppm | <1,000 ppm
3 | CCCCCCCCCCCCOC1COC2C(O)COC12 (stereo not drawn) [Compound (2)] | <50 ppm | 2,500 ppm | ≤20 ppm | ≤20 ppm | >10,000 ppm | ≤20 ppm | ≤20 ppm | ≤20 ppm | >10,000 ppm
4 | CCCCCCCCC(O)COC1COC2C(O)COC12 (stereo not drawn) [Compound (3)] | <500 ppm | ≤2500 ppm | ≤100 ppm | ≤200 ppm | <2,000 ppm | <50 ppm | ≤20 ppm | <1000 ppm | <1,000 ppm
5 | CCCCCCCCCCC(O)COC1COC2C(O)COC12 (stereo not drawn) [Compound (4)] | <100 ppm | ≤20 ppm | ≤20 ppm | ≤20 ppm | <2,000 ppm | <100 ppm | ≤20 ppm | <200 ppm | <1,000 ppm
